# Tested on: Paenibacillus sp. strain NRRL B-50972
# Assay: Antibiotic sensitivity on sLB agar
# Type: cell-based
# Conditions: growth after 24, 48, 72 hours at 30° C.
Compound,Sensitive/Resistant (antibiotic 25 μg/mL),Sensitive/Resistant (antibiotic 10 μg/mL)
CCn1cc(C(=O)O)c(=O)c2ccc(C)nc21 [Nalidixic acid],Sensitive,–
Polymyxin B,–,Resistant
